The results in this text go back to patent publication US20230265151A1, “GIP/GLP1 CO-AGONIST COMPOUNDS” (priority 2020, published 2023).

Assay type in all cases: cell-based
Experiment [1] addresses T1, hGCGR (Homo sapiens, UniProt P47871).
T1 construct: expressed in transfected cells
Briefly: Functional cAMP formation (HTRF) in HEK-293 clonal cells expressing hGCGR, 0.1% bovine casein, without or with 1.0% human serum albumin. Conditions: cAMP. The gist of the method:
(§1)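 Cells were stimulated with peptide for 30 min at 37° C, then lysed in buffer carrying cAMP-d2 and anti-cAMP Eu3+-cryptate for a competitive HTRF read after at least 60 min at room temperature. The 665/620 nm ratio was converted to nM cAMP against a standard curve.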
(In general: Cyclic AMP is a second messenger, typically raised through Gs and lowered through Gi signalling.)

For experiment [2], the target named is T2, hGIPR (Homo sapiens, UniProt P48546).
T2 construct: expressed in transfected cells
T2 sequence (P48546 22-466): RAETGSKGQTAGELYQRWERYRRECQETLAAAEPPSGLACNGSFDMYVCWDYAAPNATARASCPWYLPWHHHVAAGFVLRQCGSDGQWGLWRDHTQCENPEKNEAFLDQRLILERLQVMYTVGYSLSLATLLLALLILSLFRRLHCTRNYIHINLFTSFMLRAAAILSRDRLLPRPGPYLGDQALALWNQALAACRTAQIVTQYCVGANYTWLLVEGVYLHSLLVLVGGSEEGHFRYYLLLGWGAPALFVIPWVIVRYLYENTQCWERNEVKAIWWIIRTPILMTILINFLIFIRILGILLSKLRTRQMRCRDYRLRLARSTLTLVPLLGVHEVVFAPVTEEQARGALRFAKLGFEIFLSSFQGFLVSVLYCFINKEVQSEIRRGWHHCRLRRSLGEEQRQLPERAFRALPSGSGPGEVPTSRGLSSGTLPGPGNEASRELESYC
Briefly: Functional cAMP formation (HTRF) in HEK-293 clonal cells expressing hGIPR, 0.1% bovine casein, without or with 1.0% human serum albumin. Conditions: for EC50: cAMP, 0.1% bovine casein (no human serum albumin), geometric mean. The gist of the method: as §1

For experiment [3], the target named is hGLP-1R (Homo sapiens, UniProt P43220). Briefly: Functional cAMP formation (HTRF) in HEK-293 clonal cells expressing hGLP-1R, 0.1% bovine casein, without or with 1.0% human serum albumin. More on the design: expressed in transfected cells. The following applies: for EC50: cAMP. The gist of the method:
as §1

Setting [4] is: incubated at 37° C., 0.1% bovine casein (no human serum albumin), geometric mean, read-out: hGCGR EC50, nM (SEM, n).
Where [5] appears, read: HEK293, percent of maximal response to GIP(1-42)NH2, 37° C., 0.1% bovine casein, arithmetic mean, read-out: hGIPR Emax, % ± SEM.
Setting [6] is: incubated at 37° C., read-out: hGIPR EC50, nM (SEM, n).
Setting [7] is: HEK293, percent of maximal response to GLP-1(7-36)NH2, 37° C., 0.1% bovine casein, arithmetic mean, read-out: hGLP-1R Emax, % ± SEM.
[8] abbreviates: incubated at 37° C., 0.1% bovine casein (no human serum albumin), geometric mean, read-out: hGLP-1R EC50, nM (SEM, n).

Molecules are shown by their SMILES. Where two headings read alike, the source gives them in different places. *1 amine or outer side, *2 acyl side, *3 side chain or, on linkers, in order; H or OH if unused. Where a SMILES comes first, the peptide text is derived from it. Side-chain parts run from the residue outwards. [ ]: non-standard residue; d: D form. The star is where a group is joined. αMePhe(2-F) = C[C@](N)(Cc1ccccc1F)C(=O)O; γGlu = O=C(O)[C@H](CCC(=O)[*:2])N[*:1]; C14 diacid = O=C(O)CCCCCCCCCCCCC(=O)*; αMeY = C[C@](N)(Cc1ccc(O)cc1)C(=O)O; 4Pal = N[C@@H](Cc1ccncc1)C(=O)O; αMeL = CC(C)C[C@](C)(N)C(=O)O; Orn = NCCC[C@H](N)C(=O)O; AEEA = NCCOCCOCC(=O)O; Aib = CC(C)(N)C(=O)O

In general, EC50 refers to the concentration that produces a half-maximal response. The Emax is the size of the effect at its maximum, as opposed to the concentration needed.

T1 sequence (P47871 26-477): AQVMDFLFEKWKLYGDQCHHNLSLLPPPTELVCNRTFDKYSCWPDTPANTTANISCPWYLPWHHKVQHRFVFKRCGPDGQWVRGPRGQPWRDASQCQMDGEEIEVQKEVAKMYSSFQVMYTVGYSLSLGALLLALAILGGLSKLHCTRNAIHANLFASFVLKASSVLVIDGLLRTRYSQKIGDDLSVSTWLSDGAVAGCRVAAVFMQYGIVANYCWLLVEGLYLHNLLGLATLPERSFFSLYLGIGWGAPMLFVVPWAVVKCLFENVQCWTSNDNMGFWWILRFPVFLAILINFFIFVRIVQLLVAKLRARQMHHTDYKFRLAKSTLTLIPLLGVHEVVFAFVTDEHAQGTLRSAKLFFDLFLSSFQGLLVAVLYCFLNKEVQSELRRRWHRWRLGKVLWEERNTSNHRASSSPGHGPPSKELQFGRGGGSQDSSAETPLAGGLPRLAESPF
Sequence of hGLP-1R (P43220 24-463): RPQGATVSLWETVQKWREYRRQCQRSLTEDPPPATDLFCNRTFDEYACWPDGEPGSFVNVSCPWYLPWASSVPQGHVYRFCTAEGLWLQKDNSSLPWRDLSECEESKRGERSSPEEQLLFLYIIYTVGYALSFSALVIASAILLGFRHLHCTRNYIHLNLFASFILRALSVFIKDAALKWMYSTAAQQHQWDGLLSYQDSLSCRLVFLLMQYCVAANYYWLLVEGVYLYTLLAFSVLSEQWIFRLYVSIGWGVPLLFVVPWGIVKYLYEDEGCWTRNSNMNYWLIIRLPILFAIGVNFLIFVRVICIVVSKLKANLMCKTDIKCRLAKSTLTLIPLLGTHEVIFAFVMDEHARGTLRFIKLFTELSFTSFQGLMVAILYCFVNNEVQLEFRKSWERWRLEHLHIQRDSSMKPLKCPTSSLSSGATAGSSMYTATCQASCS

As to `CC[C@H](C)[C@H](NC(=O)[C@H](CC(C)C)NC(=O)[C@](C)(Cc1ccc(O)cc1)NC(=O)[C@@H](CCC(=O)O)NC(=O)[C@@H](NC(=O)[C@H](Cc1ccccc1)NC(=O)[C@H](CCC(=O)O)NC(=O)C(C)(C)NC(=O)[C@H](CCC(N)=O)NC(=O)[C@H](C)NC(=O)[C@H](CCCCNC(=O)COCCOCCNC(=O)COCCOCCNC(=O)[C@@H](N)CCCCNC(=O)CCCCCCCCCCCCC(=O)O)NC(=O)[C@H](CCCN)NC(=O)[C@H](CC(=O)O)NC(=O)[C@H](CC(C)C)NC(=O)[C@](C)(CC(C)C)NC(=O)[C@@H](NC(=O)C(C)(C)NC(=O)[C@@H](NC(=O)[C@H](CC(=O)O)NC(=O)[C@H](CO)NC(=O)[C@@H](NC(=O)[C@](C)(Cc1ccccc1F)NC(=O)[C@@H](NC(=O)CNC(=O)[C@H](CCC(=O)O)NC(=O)C(C)(C)NC(=O)[C@@H](N)Cc1ccc(O)cc1)[C@@H](C)O)[C@@H](C)O)C(C)C)[C@@H](C)CC)[C@@H](C)CC)C(=O)N[C@@H](CCC(=O)O)C(=O)NCC(=O)NCC(=O)N[C@@H](CCCCNC(=O)COCCOCCNC(=O)COCCOCCNC(=O)[C@@H](N)CCCCNC(=O)CCCCCCCCCCCCC(=O)O)C(=O)N[C@@H](CO)C(=O)N[C@@H](CO)C(=O)NCC(=O)N[C@@H](C)C(=O)N1CCC[C@H]1C(=O)N1CCC[C@H]1C(=O)N1CCC[C@H]1C(=O)N[C@@H](CO)C(N)=O` [Example 163], the EC50 in experiment [1] (setting [4]) was greater than 9950 nM; in experiment [2] (setting [6]), 0.0427 nM; in experiment [3] (setting [8]) it was 0.199 nM. The maximum response (Emax) in experiment [2] (setting [5]) was found to be 98.2%; in experiment [3] (setting [7]), 86.3%.
`CCCCCCCCCCCC(=O)N[C@@H](CCC(=O)NCCOCCOCC(=O)NCCCC[C@H](NC(=O)[C@H](CCCN)NC(=O)[C@H](CC(=O)O)NC(=O)[C@H](CC(C)C)NC(=O)[C@](C)(CC(C)C)NC(=O)[C@@H](NC(=O)C(C)(C)NC(=O)[C@H](Cc1ccncc1)NC(=O)[C@H](CC(=O)O)NC(=O)[C@H](CO)NC(=O)[C@@H](NC(=O)[C@](C)(Cc1ccccc1F)NC(=O)[C@@H](NC(=O)CNC(=O)[C@H](CCC(=O)O)NC(=O)C(C)(C)NC(=O)[C@@H](N)Cc1ccc(O)cc1)[C@@H](C)O)[C@@H](C)O)[C@@H](C)CC)C(=O)N[C@@H](C)C(=O)N[C@@H](CCC(N)=O)C(=O)NC(C)(C)C(=O)N[C@@H](CCC(=O)O)C(=O)N[C@@H](Cc1ccccc1)C(=O)N[C@H](C(=O)N[C@H](CCC(=O)O)C(=O)N[C@@](C)(Cc1ccc(O)cc1)C(=O)N[C@@H](CC(C)C)C(=O)N[C@H](C(=O)N[C@@H](CCCCNC(=O)COCCOCCNC(=O)CC[C@H](NC(=O)CCCCCCCCCCC)C(=O)O)C(=O)NCC(=O)NCC(=O)N1CCC[C@H]1C(=O)N[C@@H](CO)C(=O)N[C@@H](CO)C(=O)NCC(=O)N[C@@H](C)C(=O)N1CCC[C@H]1C(=O)N1CCC[C@H]1C(=O)N1CCC[C@H]1C(=O)N[C@@H](CO)C(N)=O)[C@@H](C)CC)[C@@H](C)CC)C(=O)O` [Example 427]: the EC50 in experiment [1] (37° C., 0.1% bovine casein (no human serum albumin), geometric mean, read-out: hGCGR EC50, nM (SEM, n)) is greater than 9950 nM; in experiment [1] (37° C., 0.1% bovine casein and 1.0% human serum albumin, geometric mean (SEM, n), read-out: hGCGR EC50, nM (SEM, n)), greater than 9950 nM; in experiment [2] (37° C., read-out: hGIPR EC50, nM (SEM, n)) it was 0.0132 nM; in experiment [3] (37° C., 0.1% bovine casein (no human serum albumin), geometric mean, read-out: hGLP-1R EC50, nM (SEM, n)) it was 0.206 nM; in experiment [3] (37° C., 0.1% bovine casein and 1.0% human serum albumin, geometric mean (SEM, n), read-out: hGLP-1R EC50, nM (SEM, n)), 25.1 nM. Moreover, the maximal effect (Emax) worked out at 92.4% in experiment [2] (HEK293, cAMP, 37° C., 0.1% bovine casein and 1.0% human serum albumin, percent of maximal response to GIP(1-42)NH2, read-out: hGIPR Emax, % ± SEM); 95.9% in experiment [2] (HEK293, cAMP, 37° C., 0.1% bovine casein, percent of maximal response to GIP(1-42)NH2, arithmetic mean, read-out: hGIPR Emax, % ± SEM); 109% in experiment [3] (HEK293, cAMP, 37° C., 0.1% bovine casein and 1.0% human serum albumin, percent of maximal response to GLP-1(7-36)NH2, read-out: hGLP-1R Emax, % ± SEM); 109% in experiment [3] (HEK293, cAMP, 37° C., 0.1% bovine casein, percent of maximal response to GLP-1(7-36)NH2, arithmetic mean, read-out: hGLP-1R Emax, % ± SEM).
For `CC[C@H](C)[C@H](NC(=O)[C@H](CC(C)C)NC(=O)[C@](C)(Cc1ccc(O)cc1)NC(=O)[C@H](CCCCNC(=O)COCCOCCNC(=O)COCCOCCNC(=O)CC[C@H](NC(=O)CCCCCCCCCCCCC(=O)O)C(=O)O)NC(=O)[C@@H](NC(=O)[C@H](Cc1ccccc1)NC(=O)[C@H](CCC(=O)O)NC(=O)C(C)(C)NC(=O)[C@H](CCC(N)=O)NC(=O)[C@H](C)NC(=O)[C@H](CCCCNC(=O)COCCOCCNC(=O)COCCOCCNC(=O)CC[C@H](NC(=O)CCCCCCCCCCCCC(=O)O)C(=O)O)NC(=O)[C@H](CCCN)NC(=O)[C@H](CC(=O)O)NC(=O)[C@H](CC(C)C)NC(=O)[C@](C)(CC(C)C)NC(=O)[C@@H](NC(=O)[C@H](CO)NC(=O)[C@H](Cc1ccncc1)NC(=O)[C@H](CC(=O)O)NC(=O)[C@H](CO)NC(=O)[C@@H](NC(=O)[C@](C)(Cc1ccccc1F)NC(=O)[C@@H](NC(=O)CNC(=O)[C@H](CCC(=O)O)NC(=O)C(C)(C)NC(=O)[C@@H](N)Cc1ccc(O)cc1)[C@@H](C)O)[C@@H](C)O)[C@@H](C)CC)[C@@H](C)CC)C(=O)N[C@@H](CCC(=O)O)C(=O)NCC(=O)NCC(N)=O` [Example 189] (H-Y[Aib]EGT[αMePhe(2-F)]TSD[4Pal]SI[αMeL]LD[Orn]K([AEEA-AEEA-γGlu-C14 diacid])AQ[Aib]EFIK([AEEA-AEEA-γGlu-C14 diacid])[αMeY]LIEGG-NH2; N-terminus assumed), the values for the half-maximal effective concentration (EC50) in experiment [1] (setting [4]), in experiment [2] (setting [6]) and in experiment [3] (setting [8]) were greater than 9950 nM, 0.0202 nM and 0.28 nM, respectively. Further, the results for the Emax in experiment [2] (setting [5]) and in experiment [3] (setting [7]) were 96.6 ± 4.38% and 100 ± 3.68%, respectively.
Regarding `CC[C@H](C)[C@H](NC(=O)[C@H](CC(C)C)NC(=O)[C@](C)(Cc1ccc(O)cc1)NC(=O)[C@@H](CCC(=O)O)NC(=O)[C@@H](NC(=O)[C@H](Cc1ccccc1)NC(=O)[C@H](CCCCNC(=O)COCCOCCNC(=O)CC[C@H](NC(=O)CCCCCCCCCOc1ccc(C(=O)O)cc1)C(=O)O)NC(=O)C(C)(C)NC(=O)[C@H](CCC(N)=O)NC(=O)[C@H](C)NC(=O)[C@H](CCCCNC(=O)COCCOCCNC(=O)CC[C@H](NC(=O)CCCCCCCCCOc1ccc(C(=O)O)cc1)C(=O)O)NC(=O)[C@H](CCCN)NC(=O)[C@H](CC(=O)O)NC(=O)[C@H](CC(C)C)NC(=O)[C@](C)(CC(C)C)NC(=O)[C@@H](NC(=O)C(C)(C)NC(=O)[C@@H](NC(=O)[C@H](CC(=O)O)NC(=O)[C@H](CO)NC(=O)[C@@H](NC(=O)[C@](C)(Cc1ccccc1F)NC(=O)[C@@H](NC(=O)CNC(=O)[C@H](CCC(=O)O)NC(=O)C(C)(C)NC(=O)[C@@H](N)Cc1ccc(O)cc1)[C@@H](C)O)[C@@H](C)O)C(C)C)[C@@H](C)CC)[C@@H](C)CC)C(=O)N[C@@H](CCC(=O)O)C(=O)NCC(=O)NCC(=O)N1CCC[C@H]1C(=O)N[C@@H](CO)C(=O)N[C@@H](CO)C(=O)NCC(=O)N[C@@H](C)C(=O)N1CCC[C@H]1C(=O)N1CCC[C@H]1C(=O)N1CCC[C@H]1C(=O)N[C@@H](CO)C(N)=O` [Example 378], the concentration for a half-maximal effect (EC50) was greater than 9950 nM in experiment [1] (hGCGR EC50, nM (SEM, n), 37° C., 0.1% bovine casein (no human serum albumin), geometric mean); greater than 9950 nM in experiment [1] (hGCGR EC50, nM (SEM, n), 37° C., 0.1% bovine casein and 1.0% human serum albumin, geometric mean (SEM, n)); 0.0132 nM in experiment [2] (hGIPR EC50, nM (SEM, n), 37° C.); 0.166 nM in experiment [3] (hGLP-1R EC50, nM (SEM, n), 37° C., 0.1% bovine casein (no human serum albumin), geometric mean). The maximum response (Emax) in experiment [2] (HEK293, read-out: hGIPR Emax, % ± SEM, cAMP, 37° C., 0.1% bovine casein and 1.0% human serum albumin, percent of maximal response to GIP(1-42)NH2) is 81.2%; in experiment [2] (HEK293, read-out: hGIPR Emax, % ± SEM, cAMP, 37° C., 0.1% bovine casein, percent of maximal response to GIP(1-42)NH2, arithmetic mean), 93.5%; in experiment [3] (HEK293, read-out: hGLP-1R Emax, % ± SEM, cAMP, 37° C., 0.1% bovine casein, percent of maximal response to GLP-1(7-36)NH2, arithmetic mean) it was 98.9%.
